The source of these data is patent publication US7122577B1, “Composition comprising a carrier and a purified mycobacterial lipid cell-wall component and its use in the treatment and diagnosis of disease” (priority 1997, dated 2006).

This series has as its system adjuvant arthritis. As to conditions: rat, in vivo.

As for mycolic acids [MA tb], the Toxic effects result was “No toxic effects” and the “Toxic effects within the tested doses” value is listed as “No toxic effects”.
